Results published in the METLIN SMRT retention time set (Domingo-Almenara et al. 2019).

Assay: gradient 5% acetonitrile 3 min, to 50% in 2 min, to 85% in 15 min, held 3 min, 100 µL/min
Conditions: column: Zorbax Extend-C18 2.1 x 50 mm; eluents: water / acetonitrile, 0.1% formic acid
In short: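 Data were gathered over 3 months by HPLC coupled to a quadrupole time-of-flight mass spectrometer, operated in positive and negative ionization mode. Mixtures of ~100 pure standards ran on a Zorbax Extend-C18 column (2.1 × 50 mm, 1.8 μm) at 100 μL/min, with water and acetonitrile each containing 0.1% formic acid and dead and dwell volumes of 40 μL and 900 μL. Retention time was read from adduct peaks picked by computer and checked manually.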

| SMILES | RP-LC retention time |
| --- | --- |
| O=C(C1CC1)N1CCc2sc(S(=O)(=O)NCc3ccc4c(c3)OCO4)cc2C1 | 812 s |
| CCC(C)NC(=O)Cn1cccc(-c2nc(-c3ccc(C)cc3)no2)c1=O (stereo unspecified) | 814 s |
| O=C1CCCc2cc(S(=O)(=O)N3CCC(C(=O)N4CCN(c5ccccc5)CC4)CC3)ccc2N1 | 754 s |
| Cc1sc(C)c(S(=O)(=O)N2CCCC2)c1-c1cc(C(F)(F)F)on1 | 1130 s |
| O=S(=O)(c1cc(-c2ccno2)cs1)N(CCc1ccccc1)Cc1ccccc1 | 1200 s |
| Cc1csc(-c2cc(S(=O)(=O)NCCCN3CCC(C)CC3)c(C)s2)n1 | 675 s |
| COc1ccc(Cc2cnc(NC(=O)C3COc4ccccc4C3)s2)cc1 (stereo unspecified) | 952 s |
| CCN1CCN(c2ccc(-c3ccc(OC)c(S(=O)(=O)N4CCOCC4)c3)nn2)CC1 | 585 s |
| COc1ccc(-c2cc3nn(CC(=O)Nc4c(C)cccc4C)c(=O)n3c(C)n2)cc1 | 909 s |
| O=C(c1ccccc1)N1CCC(C(=O)N2CCc3ccccc32)CC1 | 750 s |
| CCOc1ccc(-n2ccn3cc(-c4ccc(F)cc4)nc3c2=O)cc1 | 860 s |
| Cc1noc(C2CN(C(=O)Nc3ccc4c(c3)CCC4)CC23CCOCC3)n1 (stereo unspecified) | 777 s |
| CCOc1ccccc1CNC(=O)C1CCN(S(=O)(=O)c2ccc3[nH]c(=O)ccc3c2)CC1 | 750 s |
| COC(=O)c1ccccc1NC(=O)CC1CCCCN1S(=O)(=O)c1ccccc1 (stereo unspecified) | 968 s |
| CCOc1ccc(S(=O)(=O)N2CCC(C(=O)NCCCOC)CC2)cc1C | 789 s |
| COC(=O)c1ccccc1NC(=O)CCCn1c(=O)c2cccn2c2ccc(Br)cc21 | 1120 s |
| Cc1ccc(Cl)cc1NC(=O)N1CCC(n2cnnc2C2CC2)C1 (stereo unspecified) | 653 s |
| O=S(=O)(c1ccc(Cl)c(-c2nnc(-c3ccccc3)o2)c1)N1CCSCC1 | 1070 s |
| CCc1ccc(-c2noc(Cn3c(=O)n(-c4ccccc4)c(=O)c4sccc43)n2)cc1 | 1090 s |
| O=c1n(CCc2ccccc2)nc2c(S(=O)(=O)N3CCN(c4ccc(F)cc4)CC3)cccn12 | 989 s |
| CCn1nccc1-c1cccc(-c2noc(-c3ccnc(Cl)c3)n2)c1 | 1160 s |
| Cc1cc(Cl)ccc1S(=O)(=O)N1CCC2(CCC(CN3CCN(C)CC3)O2)CC1 (stereo unspecified) | 642 s |

| SMILES | RP-LC retention time |
| --- | --- |
| COc1ccc(-c2cc(N3CCC(NC(=O)c4ccccc4Br)C3)n[nH]2)cc1 (stereo unspecified) | 688 s |
| COC[C@@H]1CN(c2cnccn2)C[C@H]1C(=O)NC(C)C | 572 s |
| O=C(NCc1cccc(F)c1)c1cn2c(n1)CCCC2 | 584 s |
| O=C(c1cn(-c2cc(N3CCSCC3)ncn2)cn1)N1CCN(c2ncccn2)CC1 | 739 s |
| COc1ccccc1C(=O)Nc1nc(-c2ccc3c(c2)NC(=O)CO3)c(C)s1 | 889 s |
| COC1CCOC2(CCN(C(=O)c3ccoc3)CC2)C1 (stereo unspecified) | 652 s |
| COc1cccc(OC)c1C(=O)N1CCCC1c1cc(C(C)C)on1 (stereo unspecified) | 794 s |
| c1nc2c(c(NCc3ccc4c(c3)OCO4)n1)CCC2 | 606 s |
| COc1ccccc1N1CCN(C(=O)C2CCN(S(=O)(=O)c3cn(C(C)C)cn3)CC2)CC1 | 716 s |
| CC(C)CCNC(=O)c1cc2n(n1)CC(C)(C(=O)NCc1ccc(F)cc1)N(C)C2=O (stereo unspecified) | 770 s |
| CN(C)c1cccc(C(=O)Nc2cc(-c3ccsc3)no2)c1 | 927 s |
| O=c1cc(-c2ccccc2)nc2n1CCN2CCCN1CCOCC1 | 582 s |
| Cn1cc(C2c3ccccc3C(=O)N2CC(N)=O)c2ccccc21 (stereo unspecified) | 696 s |
| Cc1nnc(-c2cc(S(=O)(=O)NC3CCCCCCC3)c(C)n2C)o1 | 897 s |
| CC(C)n1c(-c2cccc(C(=O)NC3CCCC3)c2)nc2cccnc21 | 796 s |
| O=C(CNC(=O)c1cc(F)cc(F)c1)Nc1nc2ccccc2[nH]1 | 642 s |
| Cc1nc(C)c(C(=O)Nc2nc(-c3ccc(C)c(C)c3)cs2)s1 | 1060 s |
| CCOc1cc(S(=O)(=O)Nc2ncccc2C)ccc1Br | 666 s |
| COc1ccc(C)cc1NC(=O)N1CCC2(CC1)NC(=O)c1ccc(Cl)cc1N2C | 884 s |
| COc1ccc(CCC(=O)N2CCC3(C2)C(=O)N(C)c2ccccc23)cc1 (stereo unspecified) | 872 s |
| O=C(Nc1ccccc1C(F)(F)F)N1CCN(c2ccc(=O)n(-c3ccc(F)cc3)n2)CC1 | 794 s |
| Cc1ccc(C)c(-c2cc3c(=O)n(Cc4noc(-c5ccc6c(c5)OCO6)n4)ccn3n2)c1 | 1120 s |

| SMILES | RP-LC retention time |
| --- | --- |
| Cn1ncc2c(N3CCCC3)nc(C(=O)NCc3ccc(F)cc3)nc21 | 790 s |
| CCCN1C(=O)c2cc(C(=O)NCc3cccc(C)c3)nn2CC1(C)C(=O)NC1CCCC1 (stereo unspecified) | 866 s |
| CO[C@H]1C(=O)N(C(C)C)[C@H]1C1CCN(S(=O)(=O)c2cccc3nsnc23)CC1 | 831 s |
| CCn1c(=O)c2ccccc2n(Cc2nc(-c3ccc(OC)cc3)no2)c1=O | 993 s |
| COc1ccc(NC(=O)CN2C(=O)C3CCCN3C(=O)c3ccc(F)cc32)cc1 (stereo unspecified) | 693 s |
| CCCCNC(=O)c1sc2ncn(CC(=O)N3CC(C)CC(C)C3)c(=O)c2c1C (stereo unspecified) | 890 s |
| O=C(c1cccs1)N1N=C(c2ccc3c(c2)OCO3)CC1c1ccco1 (stereo unspecified) | 919 s |
| Cc1ccc(S(=O)(=O)N2CCC(CC(=O)NCCN(C)Cc3ccccc3)CC2)cc1 | 683 s |
| Cc1ccc(-n2c(N3CCCC(C(=O)NCCC4=CCCCC4)C3)nc3ccsc3c2=O)cc1 (stereo unspecified) | 1060 s |
| Cc1cnc(C2CC2)n1CCNC(=O)C1CC(=O)N(C2CCCCC2)C1 (stereo unspecified) | 594 s |
| COc1ccc(C(=O)NC2(c3nc(-c4cccnc4)no3)CCCCC2)cc1F | 938 s |
| CCN1CCN(C(=O)c2nnc(-c3ccc(S(=O)(=O)N4CCCC4)cc3)o2)CC1 | 623 s |
| O=C1N=C(N2CCOCC2)S/C1=C/c1ccc(-c2ccccc2Br)o1 | 872 s |
| CNC(=O)NC(=O)COc1cc(=O)n2cccc(C)c2n1 | 579 s |
| COc1ccc(NC(=O)N2CCCN(C3CCN(CC4CC4)C3=O)CC2)cc1Cl (stereo unspecified) | 569 s |
| CCN(CC)CCNC(=O)CN1C(=O)C2CCCCN2c2ccc(C(=O)N(C)C)cc21 (stereo unspecified) | 601 s |
| O=C(NCCCN1CCOCC1)c1ccc2ccnc(N3CCN(c4ccccc4F)CC3)c2c1 | 595 s |
| Cc1ccc(-c2c(C#N)c(N)nc(SCC(=O)NCc3ccccc3)c2C#N)cc1 | 844 s |
| COc1cc2c(cc1OC)-c1cc(=Nc3c(C)cc(C)cc3C)n(C)c(=O)n1CC2 | 765 s |
| Cc1ccc(-c2noc(Cc3nc(-c4ccc(C)cc4C)cs3)n2)cc1 | 1190 s |
| O=C(O)c1cc(-c2cccs2)n(C2CCS(=O)(=O)C2)n1 (stereo unspecified) | 630 s |
| Cc1ccc(C(=O)N2CCc3[nH]cnc3C23CCCC3)c(C)c1 | 564 s |
